Source: patent publication US11993571B2, “Indole derivatives as efflux pump inhibitors” (RUTGERS, THE STATE UNIVERSITY OF NEW JERSEY, priority 2017, dated 2024)
Where a name gives a salt, the structure may show the parent alone.

Key:
[1] = tested on: Pseudomonas aeruginosa ATCC 27853; assay: Standard EPI assay (MIC of levofloxacin or cefepime in absence and presence of the EPI); format: cell-based; conditions: P. aeruginosa ATCC 27853
Description: (§1) MIC assays were conducted in accordance with Clinical and Laboratory Standards Institute (CLSI) guidelines for broth microdilution.
(§2) The EPI assay for the purposes of these studies represents a MIC assay in which the MIC of the antibiotic against the bacteria is tested in the presence of an experimental efflux pump inhibitor (EPI). […] Using serial dilutions of the EPI, its enhancement of antibiotic activity was then evaluated. […] For the evaluation of the efficacy of an EPI against bacteria that were pre-exposed to an antibiotic, the inoculum of bacteria that used was developed from a bacterial culture isolated as a single colony following exposure at ½ the MIIC of the antibiotic (so as to induce efflux pump expression), was to be used in combination with the EPI.
In our standard EPI assay, the MIC of the test antibiotic is determined in the absence and presence of sub-inhibitory concentrations of the EPI. Initially, the sub-inhibitory concentration used was ½×MIC of the EPI. […] Similar methodology was employed to examine the synergy with Escherichia coli ATCC 25922 in the presence of varied concentrations of these EPIs using clarithromycin as the antibiotic.

P. aeruginosa ATCC 27853 = assay: Intrinsic MIC assay (CLSI broth microdilution); format: cell-based; conditions: Pseudomonas aeruginosa, ATCC27853
Description: as §1
The intrinsic MIC of the experimental EPIs was tested with the method described. The 2-fold serial dilution begins with 100 μg/mL of tested compound in the first column of the 96-well plates. The following Gram-negative bacterial strains were included in these assays: […]

[2] = tested on: P. aeruginosa [ATCC 27853]; assay: Mouse septicemia model of infection; format: in vivo, Swiss Webster female mice; conditions: experiment #512, cefepime, 10 mg/ml b.i.d., 250 ul
Description: A general method for the in vivo assessment of bacterial EPIs is complicated by the fact that that both the antibiotic and the EPI need to be present for synergy to be achieved. A general method was discovered that has proven to be effective in establishing the relative efficacy of bacterial EPIs in a mouse septicemia model. The bacterial EPI is administered initially intravenously to mice with septicemia, followed 5 minutes later by the intravenous administration or oral administration of the antibiotic. A second administration of the EPI is then administered subcutaneously after an additional 5 minutes to act as a booster, followed by the final administration of the antibiotic either intravenously or orally after the second administration of the EPI. […] In a few instances, a second regiment of both EPI and antibiotic as administered on day 1 was required after 24 hours to affect cures.
Determination of the in vivo efficacy of bacterial efflux pump inhibitors (EPIs) can be efficiently determined using a mouse septicemia model of infection. The systemic infection is initiated by a 500 ul intraperitoneal injection of an inoculum containing bacteria (such as P. aeruginosa [ATCC 27853]) at a concentration of approximately 5×10^5 cells in 5% mucin in Swiss Webster female mice. […]

[3] = tested on: P. aeruginosa ATCC 27853 pre-exposed to cefepime; assay: Pre-exposure bacterial EPI assay; format: cell-based, Pseudomonas aeruginosa
Description: as §2
The principle underlying this pre-exposure is that exposure of the bacteria to sub-inhibitory concentrations of the test antibiotic will induce expression of efflux pumps, if any, and may represent the scenario in vivo more accurately.

SMILES: CC(C)C(N)CC[C@H](N)CNC(=O)c1cc2ccc(-c3ccc(F)cc3)cc2[nH]1 (stereo partly drawn) [Example 6, N-((2S)-2,5-diamino-6-methylheptyl)-6-(4-fluorophenyl)-1H-indole-2-carboxamide dihydrochloride]
- MIC of levofloxacin in the presence of EPI ([1]; 6.25 μg/mL of the EPI): 0.063 µg/mL
- reduction of the MIC of levofloxacin relative to the absence of EPI ([1]; 6.25 μg/mL of the EPI): 32 fold
- MIC of cefepime in the presence of EPI ([1]; 12.5 μg/mL of the EPI): 1.0 µg/mL
- decrease of the MIC of cefepime ([1]; 12.5 μg/mL of the EPI): 2 fold
- MIC (P. aeruginosa ATCC 27853): 25 µg/mL
- % Survival (72 hr) Antibiotic + EPI ([2]; Example 6, 3.0 mg/ml b.i.d.): 100%

SMILES: NCCC[C@@H](N)CNC(=O)c1cc2ccc(-c3ccc(F)cc3)cc2[nH]1 [Example 20, (R)-5-(6-(4-fluorophenyl)-1H-indole-2-carboxamido)pentane-1,4-diaminium chloride]
- MIC of cefepime against cefepime-exposed P. aeruginosa in the presence of EPI ([3]; 6.25 μg/mL of the EPI): 0.5 µg/mL
- reduction of the MIC of cefepime against cefepime-exposed P. aeruginosa ([3]; 6.25 μg/mL of the EPI): 8 fold

SMILES: CO/N=C(\C(=O)N[C@@H]1C(=O)N2C(C(=O)[O-])=C(C[N+]3(C)CCCC3)CS[C@H]12)c1csc(N)n1 [cefepime, reference compound]
- MIC ([3]; Pseudomonas aeruginosa, ATCC27853, read-out: MIC of cefepime against P. aeruginosa pre-exposed to cefepime): 16 µg/mL
- % Survival (72 hr) Antibiotic Only ([2]; mice infected with P. aeruginosa): 25%

SMILES: C[C@H]1COc2c(N3CCN(C)CC3)c(F)cc3c(=O)c(C(=O)O)cn1c23 [levofloxacin, reference compound]
- MIC ([1]; Pseudomonas aeruginosa, ATCC27853): 1 µg/mL
